Read-outs that look alike come from different tables or passages of the source.
Assays:
[1] = tested on: recurrent or metastatic nasopharyngeal carcinoma patient; conditions: human, in vivo
From the text: Inclusion criteria: eligible subjects must (1) be 18 years old or older, (2) have recurrent or metastatic nasopharyngeal carcinoma, (3) be refractory to standard systemic therapy or have progressive disease after 6 months of radiotherapy and chemotherapy, (4) have an ECOG score of 0 or 1, (5) have the normal organ function within 10 days […] treatment, (6) have no history of autoimmune diseases or other malignant cancers, and (7) have not received any anti-PD-1/or anti-PD-L1 immunotherapy before.
Subjects must have an evaluable lesion according to RECIST v 1.1, have not received anti-tumour monoclonal antibody drug treatment within 4 weeks before treatment, have not received any anti-tumour drug treatment within 2 weeks before treatment, and have not received systemic steroid drug treatment within 7 days before treatment.
From Dec. 22, 2016 to Feb. 19, 2019, a total of 279 patients with recurrent or metastatic NPC were screened from 17 centres in Chinese mainland, and 190 patients were enrolled in this study. […] Of the two histological subtypes, 182 patients (95.8%) had non-keratinizing NPC and 8 patients (4.2%) had keratinizing NPC. There were 116 patients (61.1%) who had received at least two kinds of systemic therapy.
Test drug: anti-PD-1 antibody toripalimab (WO 2014206107). […]

[2] = tested on: recurrent or metastatic nasopharyngeal carcinoma patient; assay: Single-arm phase II clinical trial of toripalimab: anti-tumour activity by RECIST v1.1 / irRECIST; type: in vivo, human
Procedure: Test drug: anti-PD-1 antibody toripalimab (WO 2014206107).
The subjects were evaluated every 8 weeks for the first year and every 12 weeks thereafter according to RECIST v1.1 and the Immune-Related Response Evaluation Criteria in Solid Tumour (irRECIST). The subjects were evaluated every 3 months after drug discontinuance.
This was a single-arm, phase II, open-label clinical trial. This study was conducted to evaluate the safety and anti-tumour activity of an anti-PD-1 antibody in treatment of a recurrent or metastatic nasopharyngeal carcinoma patient.

[3] = Immunogenicity: anti-drug antibodies (ADAs) in the phase II trial; type: in vivo, human
From the text: Anti-drug antibodies (ADAs) were detected in 190 patients. Seven cases (3.7%) were positive for ADA, including four consecutive positive samples.

[4] = tested on: recurrent or metastatic nasopharyngeal carcinoma patient; type: in vivo, human
Procedure: The PD-L1 expression status in tumour biopsies was determined by SP142 IHC staining, with tumour proportion score (TPS) > 1% being determined as positive.
Tumour biopsy tissues and matched peripheral blood samples from subjects were subjected to whole exome sequencing (WES) to identify tumour-specific mutations. […] In this study, the top 10% or 20% cut-off values of TMB (2.9 Muts/Mb and 2.0 Muts/Mb, respectively) were selected for evaluation of clinical response.
The correlation between genomic changes and clinical efficacy was analysed.
Plasma was collected from patients before administration, and the number of copies of EBV DNA was analysed by qRT-PCR once every 4 weeks.

[5] = Investigator, RECIST1.1, n = 190
[6] = Investigator, irRECIST, n = 190
[7] = at least two prior treatments (n = 116)
[8] = keratinizing versus non-keratinizing NPC

toripalimab
patients subjected to dose interruption due to TRAEs [1]: 3.7%
CR ([2]; IRC, RECIST1.1, n = 190): 5 (2.6%)
NE ([2]; IRC, RECIST1.1, n = 190): 28 (14.7%)
PD ([2]; IRC, RECIST1.1, n = 190): 86 (45.3%)
PR ([2]; IRC, RECIST1.1, n = 190): 34 (17.9%)
CR ([2]; IRC, RECIST v1.1, 190 patients): 5 cases
PR ([2]; IRC, RECIST v1.1, 190 patients): 34 cases
CR ([2]; IRC, irRECIST, n = 190): 5 (2.6%)
NE ([2]; IRC, irRECIST, n = 190): 28 (14.7%)
PD ([2]; IRC, irRECIST, n = 190): 71 (37.4%)
PR ([2]; IRC, irRECIST, n = 190): 34 (17.9%)
ORR ([2]; IRC, keratinizing NPC (n = 8)): 62.5%
ORR ([2]; IRC, non-keratinizing NPC (n = 182)): 18.7%
CR [2, 5]: 5 (2.6%)
DCR (%) [2, 5]: 88 (46.3%)
NE [2, 5]: 24 (12.6%)
ORR (%) [2, 5]: 40 (21.1%)
PD [2, 5]: 78 (41.1%)
PR [2, 5]: 35 (18.4%)
CR [2, 6]: 5 (2.6%)
DCR (%) [2, 6]: 103 (54.2%)
NE [2, 6]: 28 (14.7%)
ORR (%) [2, 6]: 44 (23.2%)
PD [2, 6]: 59 (31.1%)
PR [2, 6]: 39 (20.5%)
median DOR ([2]; all subjects): 12.8 months
median overall survival (mOS) ([2]; all subjects): 17.4 months
median progression-free survival (mPFS) ([2]; all subjects): 1.9 months
median time to response ([2]; all subjects): 1.8 months
patients who had died ([2]; as of Feb. 19, 2020, 190 patients): 49.5%
mOS [2, 7]: 15.1 months
mPFS [2, 7]: 2.0 months
median DOR [2, 7]: 21.5 months
OS ([2]; keratinizing NPC): not reached
PFS ([2]; keratinizing NPC): 16.6 months
HR for OS [2, 8]: 0.51
HR for PFS [2, 8]: 0.46
subjects who had reductions in target lesions relative to baseline ([2]; n = 190): 38.4%
subjects with a reduction greater than or equal to 30% in target lesions from baseline ([2]; n = 190): 25.3%
OS ([2]; non-keratinizing NPC): 15.1 months
PFS ([2]; non-keratinizing NPC): 1.9 months
ORR ([2]; patients who had received at least two prior treatments (n = 116)): 21.6%
median OS ([2]; subjects experiencing objective response (n = 39) or stable disease (n = 38)): not reached
median OS ([2]; subjects with progressive disease (n = 113)): 8.4 months
cases positive for ADA ([3]; 190 patients): 3.7%
difference in incidence of AEs, SAEs and AEs of grade 3 or above, drug discontinuance or dose delay, and clinical efficacy ([3]; between ADA positive and negative patients): no significant difference
PFS ([4]; 10% of patients with the highest TMB value, similar to the 90% with the lowest TMB value): 1.9 months
ORR ([4]; 11 patients with genome amplification of CCND1 and/or FGF14, FGF3 or FGF4 chromosome 11q13 region): 0%
median time of at least 2-fold increase in plasma EBV DNA copies prior to imaging-confirmed progressive disease ([4]; 14 patients who experienced progressive disease): 3 months
ORR ([4]; 19 patients with ETV6 mutations): 5.3%
ORR ([4]; PD-L1+ patients): 27.1%
ORR ([4]; PD-L1- patients): 19.4%
mOS ([4]; PD-L1 > 25%): not reached
mPFS ([4]; PD-L1 > 25%): 7.2 months
HR for OS ([4]; PD-L1 > 25% versus ≤ 25%): 0.57
HR for PFS ([4]; PD-L1 > 25% versus ≤ 25%): 0.64
mPFS ([4]; PD-L1 ≤ 25%): 1.9 months
ORR ([4]; at least 2-fold decrease in plasma EBV DNA copies on day 28 (n = 60)): 48.3%
ORR ([4]; baseline EBV titre < 10000 IU/mL): 26.7%
ORR ([4]; baseline EBV titre ≥ 10000 IU/mL): 15.4%
OS ([4]; high TMB patients): 9.2 months
ORR ([4]; less than 2-fold decrease in plasma EBV DNA copies on day 28 (n = 88)): 5.7%
OS ([4]; low TMB patients): 17.4 months
ORR ([4]; patients with PD-L1 > 25%): 38.1%
ORR ([4]; patients with PD-L1 ≤ 25%): 19.3%
median decrease in the number of copies of EBV DNA in plasma from baseline to the nadir ([4]; patients with objective response (n = 34)): 31 fold
change in the number of copies of EBV DNA in plasma from baseline ([4]; patients with progressive disease (n = 80)): no change
decrease in the number of copies of EBV DNA in plasma from baseline to the nadir ([4]; patients with stable disease (n = 35)): 3 fold
ORR ([4]; top 10% of patients by TMB (cut-off 2.9 Muts/Mb)): 17.6%
ORR ([4]; top 20% of patients by TMB (cut-off 2.0 Muts/Mb)): 14.3%
